# Results taken from patent US20240043373A1, “COMPOSITIONS AND METHODS FOR TREATING AMYLOID-RELATED CONDITIONS” (The Regents of the University of California, priority 2020, published 2024).
# “Also recorded” adds a separate entry of the source.
# Tests used:
# p-GSK3β (Ser 9) [1] = test: phospho GSK3β / total GSK3β western blot in SH-SY5Y cells; format: cell-based, human; settings: SH-SY5Y 100 k/well, 5 uM
# Excerpt: FIG. 14B is a graph showing each blot normalized to actin levels.
# FIG. 16C is a graph decpiting the normalized to actin levels and the ratio of (phosphor-GSK3β/Actin) to (Total-GSK3β/Actin) from the Western blots in FIGS. 16A & B, calculated by densitometry.
# RTN3 = test: Oral treatment of ApoE4:5xFAD mice, brain RTN3; format: in vivo; settings: E4:FAD mice, orally 4 mg/kg for 18 days
# sAPPα [2] = test: Oral treatment of ApoE4:5xFAD mice, brain sAPPα; format: in vivo; settings: E4:FAD mice, orally 4 mg/kg for 18 days
# p-GSK3β = test: Oral treatment of ApoE4:5xFAD mice, brain p-GSK3β; format: in vivo; settings: E4:FAD mice, orally 4 mg/kg for 18 days
# RTN3 monomer = RTN3 monomer immunoblot (WB) in SH-SY5Y cells
# sAPPα [3] = test: Primary HTS: sAPPα AlphaLISA in CHO-7W cells; format: cell-based, Chinese Hamster
# Description: A HTS of portions of the UCLA compound library was undertaken. The primary HTS was carried out at the MSSR facility at UCLA using CHO-7W cells. An initial screen of approximately 7000 compounds was performed using the NIH and NPW libraries, 3 plates from the targeted libraries (TAR), full LOPAC and NKIL libraries, and four plates from the Emerald/Synergy (ES) library. CHO-7W cells (5 K/well) were treated with 5 μM compounds for 48 h followed by collection of media and determination of sAPPα using an AlphaLISA.
# sAPPα [4] = test: sAPPα AlphaLISA in SH-SY5Y cells; format: cell-based, human; settings: for sAPPα in SH-SY5Y cells: SH-SY5Y 150 K/well, 1, 5, 10 and 50 μM, 24 hours, AlphaLISA; for sAPPα levels after 24 h: SH-SY5Y, after 24 h (FIG. 12B)
# Description: Media (20 μL) was collected every 2 h for 24 h (plate was shaken prior to media collection to disburse sAPPα) from each treatment group.
# BAP31 [5] = test: Quantitative global proteomics (LC-MS/MS) of treated SH-SY5Y cells; format: cell-based, human; settings: treated vs vehicle (DMSO) SH-SY5Y cells
# Description: Tryptic peptides were subsequently labeled with isobaric tandem mass tags (ThermoFischer Scientific) to provide relative quantitation between samples, and then fractionated using high pH reverse-phase chromatography for increased proteome coverage. The multiplexed samples were analyzed by liquid chromatography tandem mass spectrometry (LC-MS/MS).
# BAP31 [6] = test: BAP31 immunoblot (WB) in SH-SY5Y cells; format: cell-based, human; settings: SH-SY5Y after treatment
# p-GSK3β (Ser 9) [7] = settings: Deng et al., 2015; used at 25 nM as positive control; cited from earlier work
compound,measurement,setting,value
"CN1[C@@H]2CC[C@H]1C[C@@H](OC(=O)c1c[nH]c3ccccc13)C2 [F03, Tropisetron]",phosphorylation of GSK3β,p-GSK3β (Ser 9) [1]; 12 h or 18 h,increases phosphorylation of GSK3β
same,RTN3 levels in the brain,RTN3,slightly enhanced
same,sAPPα in brain,sAPPα [2],slight increase
same,p-GSK3β in brain,p-GSK3β,bigger increase
same,level of RTN3 monomer (~25 kD),"RTN3 monomer; SH-SY5Y 100 k/well, 5 uM, 12 h, vs DMSO or untreated",trended to increase
"CC(Cc1ccccc1)(NC(=O)CN)c1ccccc1 (centres unmarked) [DDL-401, Remacemide]",enhancement of sAPPα in CHO-7W cells,"sAPPα [3]; CHO cells stably expressing human APP, initial HTS",enhancer of sAPPα
same,percent increase in sAPPα levels normalized to control in HTS,"sAPPα [3]; CHO-7W cells 5 K/well, 5 μM compound, 48 h, AlphaLISA",> 25%
same,sAPPα in SH-SY5Y cells,sAPPα [4],significantly (p>0.01) increased; also recorded: increased sAPPα
same,sAPPα in SH-SY5Y cells,sAPPα [4]; listed as Remacemide,sAPPα increase
same,time course of sAPPα in media,"sAPPα [4]; SH-SY5Y 400,000/well, 5 μM, media collected every 2 h for 24 h, vs DMSO",time dependent increase in sAPPα
same,sAPPα levels after 24 h,sAPPα [4],significantly increased
same,levels of tryptic peptides corresponding to BAP31 (MS/MS),BAP31 [5],increase in the levels of tryptic peptides
same,BAP31 by WB,BAP31 [6],no significant increase
same,concentration giving a modest increase in RTN3 monomer levels,"RTN3 monomer; SH-SY5Y, WB",≥ 10 µM
sAPPα: recombinant sAPPα (25 nM) used as a positive control for GSK3β phosphorylation,"phosphorylation of GSK3β (positive control, literature)",p-GSK3β (Ser 9) [7],increase the phosphorylation of GSK3β
"COc1cc(C(=O)OCCCN2CCCN(CCCOC(=O)c3cc(OC)c(OC)c(OC)c3)CC2)cc(OC)c1OC (racemic) [DDL-402, Dilazep]",sAPPα levels after 24 h,sAPPα [4],significantly increased
same,ratio (phospho-GSK3β/Actin) to (Total-GSK3β/Actin),p-GSK3β (Ser 9) [1]; 18 h,trend to increase in p-GSK3β
